The term viability denotes a read-out of living cells in per cent, often relative to untreated cells.

Results on 33 compounds are retold here after publication PMC12040169 (PLOS Biology, 2025).

The structures appear in SMILES notation.

A short description of this data set: in vitro. Conditions: human, hela cells, % viability.
As to `O=C(c1cccs1)N1CCC(n2cnc3cccnc32)CC1` [CBK283938], the viability at 28.5 h, 10 µM is 88.4%.
The result for `O=C(c1ccco1)N1CCC(n2cnc3cccnc32)CC1` [CBK283939] reads 91.6%; that for `Cn1c(N2CCC(C(=O)NC3CC3)CC2)nc2ccccc21` [CBK283940], 97.9%.
The result for `CCn1c(=O)n(CC(=O)N2CCCCCC2)c2cccnc21` [CBK283942] reads 97.1%; that for `CCn1c(=O)n(CC(=O)N(C(C)C)C(C)C)c2cccnc21` [CBK283943], 100%.
To `CCN(CC)C(=O)CN1C(=O)N2CCN=C2c2ccccc21` [CBK283944] belongs 94.9%; to `Cc1nc2c(c(=O)[nH]1)CN(CC1CCCCC1)CC2` [CBK283947], 86.7%; to `Cc1nc2c(c(=O)[nH]1)CN(Cc1ccccc1F)CC2` [CBK283948], 89.3%.
In the case of `Cc1nc2c(c(=O)[nH]1)CN(Cc1cccc(Oc3ccccc3)c1)CC2` [CBK283951], the viability at 28.5 h, 10 µM was 104%.
The result for `Cc1nc2c(c(=O)[nH]1)CN(Cc1ccc(-c3ccccc3)cc1)CC2` [CBK283952] reads 99%; that for `Cc1c(C(=O)N2CCC(C(=O)c3cccnc3)CC2)oc2ccccc12` [CBK283954], 88.9%; that for `C#CCNC(=O)C1CCN(c2nc3ccccc3n2C)CC1` [CBK283956], 89.7%.
The result for `Cn1c(N2CCC(C(=O)NCC3CC3)CC2)nc2ccccc21` [CBK283957] reads 91.6%; that for `O=C(CN1C(=O)N2CCN=C2c2ccccc21)NC1CC1` [CBK283958], 93.1%.
As to `O=C(CN1C(=O)N2CCN=C2c2ccccc21)NC1CCCC1` [CBK283959], the viability at 28.5 h, 10 µM worked out at 100%.
To `O=C1NC2(CCN(C(=O)C3CCCC3)CC2)Nc2ccccc21` [CBK283962] belongs 94.9%.
The result for `COCCn1c(=O)n(Cc2ccccc2)c2cccnc21` [CBK283964] reads 91%.
To `O=c1n(Cc2ccncc2)nc(C(F)(F)F)c2cccn12` [CBK283966] belongs 87%.
In the case of `Cc1nc2c(c(=O)[nH]1)CCN(Cc1ccc(Cl)c(Cl)c1)C2` [CBK283969], the viability at 28.5 h, 10 µM was found to be 81.6%.
The result for `CC1CCCCC1NC(=O)c1ncoc1-c1cccs1` (stereo not drawn) [CBK283973] reads 84.8%.
To `CN(C)C(=O)CN1CC[C@@H](c2ccccc2)[C@H](O)C1` [CBK283979] belongs 83%.
To `Cc1cc2c(o1)CCc1sc(N(C)C(=O)C3CC(=O)N(C)C3)nc1-2` (stereo not drawn) [CBK283980] belongs 75.6%; to `O=C1CCCN1CCC(=O)N1CCCC1c1nc2ccccc2[nH]1` (stereo not drawn) [CBK283981], 84.2%.
For `Cc1nc2c(c(=O)[nH]1)CN(Cc1c(C)oc3ccccc13)CC2` [CBK283984], the viability at 28.5 h, 10 µM worked out at 94.8%.
The result for `Cn1c(N2CCCC(C(=O)NCC3CC3)C2)nc2ccccc21` (stereo not drawn) [CBK283987] reads 92.6%; that for `O=c1[nH]nc2c3ccc(Cl)cc3ncn12` [CBK283988], 62.3%; that for `Cc1nc2c(c(=O)[nH]1)CCN(Cc1cccc(Oc3ccccc3)c1)C2` [CBK283989], 81.9%.
Regarding `C=CCn1c(C)c(CN2CCc3c(nc(C)[nH]c3=O)C2)c2ccccc21` [CBK283990], the viability at 28.5 h, 10 µM was 88.6%.
On to `Cc1nc2c(c(=O)[nH]1)CCN(Cc1c(C)oc3ccccc13)C2` [CBK283994], for which the viability at 28.5 h, 10 µM worked out at 87.8%.
Regarding `Cc1ccc2[nH]c(C3CCCCN3C(=O)c3cscn3)nc2c1` (stereo not drawn) [CBK283999], the viability at 28.5 h, 10 µM came out at 96.6%.
As to `Cc1ccc2[nH]c(C3CCCCN3C(=O)c3ccncc3)nc2c1` (stereo not drawn) [CBK284000], the viability at 28.5 h, 10 µM amounted to 103%.
To `c1coc(CN2CCC(c3ccc4c(c3)OCO4)CC2)c1` [CBK284001] belongs 90.3%.
For `CN(C)CCn1nc(-c2cccc(-n3cccc3)c2)oc1=O` [CBK284002], the viability at 28.5 h, 10 µM is 94.2%.
